Results: the kinase profiling compilation of Christmann-Franck et al. (2016)

Columns and labels:
CSNK1G3 (human) = CSNK1G3 (human) (UniProt Q9Y6M4); assay: KINOMEscan competition binding; settings: compound 1.0 µM
PRKACB (human) = PRKACB (human) (UniProt P22694); assay: KINOMEscan competition binding; settings: compound 1.0 µM
ERN1 (human) = ERN1 (human) (UniProt O75460); assay: KINOMEscan competition binding; settings: compound 1.0 µM
MAK (human) = MAK (human) (UniProt P20794); assay: KINOMEscan competition binding; settings: compound 1.0 µM
CDC2L2 (human) = CDC2L2 (human) (UniProt Q9UQ88); assay: KINOMEscan competition binding; settings: compound 1.0 µM
MAP3K4 (human) = MAP3K4 (human) (UniProt Q9Y6R4); assay: KINOMEscan competition binding; settings: compound 1.0 µM
RPS6KA1 KD1 (human) = RPS6KA1 KD1 (human) (UniProt Q15418); assay: KINOMEscan competition binding; settings: compound 1.0 µM
HUNK (human) = HUNK (human) (UniProt P57058); assay: KINOMEscan competition binding; settings: compound 1.0 µM
STK35 (human) = STK35 (human) (UniProt Q8TDR2); assay: KINOMEscan competition binding; settings: compound 1.0 µM
DDR2 (human) = DDR2 (human) (UniProt Q16832); assay: KINOMEscan competition binding; settings: compound 1.0 µM
ROCK1 (human) = ROCK1 (human) (UniProt Q13464); assay: KINOMEscan competition binding; settings: compound 1.0 µM
PAK2 (human) = PAK2 (human) (UniProt Q13177); assay: KINOMEscan competition binding; settings: compound 1.0 µM
ERBB3 (human) = ERBB3 (human) (UniProt P21860); assay: KINOMEscan competition binding; settings: compound 1.0 µM
LYN (human) = LYN (human) (UniProt P07948); assay: KINOMEscan competition binding; settings: compound 1.0 µM
FGFR3 (human) = FGFR3 (human) (UniProt P22607); assay: KINOMEscan competition binding; settings: compound 1.0 µM
CASK (human) = CASK (human) (UniProt O14936); assay: KINOMEscan competition binding; settings: compound 1.0 µM
SGK3 (human) = SGK3 (human) (UniProt Q96BR1); assay: KINOMEscan competition binding; settings: compound 1.0 µM
BMP2K (human) = BMP2K (human) (UniProt Q9NSY1); assay: KINOMEscan competition binding; settings: compound 1.0 µM
CDK14 (human) = CDK14 (human) (UniProt O94921); assay: KINOMEscan competition binding; settings: compound 1.0 µM
PHKG2 (human) = PHKG2 (human) (UniProt P15735); assay: KINOMEscan competition binding; settings: compound 1.0 µM
SYK (human) = SYK (human) (UniProt P43405); assay: KINOMEscan competition binding; settings: compound 1.0 µM
CSK (human) = CSK (human) (UniProt P41240); assay: KINOMEscan competition binding; settings: compound 1.0 µM
Sequence of CSK (human) (P41240 whole entry, looked up): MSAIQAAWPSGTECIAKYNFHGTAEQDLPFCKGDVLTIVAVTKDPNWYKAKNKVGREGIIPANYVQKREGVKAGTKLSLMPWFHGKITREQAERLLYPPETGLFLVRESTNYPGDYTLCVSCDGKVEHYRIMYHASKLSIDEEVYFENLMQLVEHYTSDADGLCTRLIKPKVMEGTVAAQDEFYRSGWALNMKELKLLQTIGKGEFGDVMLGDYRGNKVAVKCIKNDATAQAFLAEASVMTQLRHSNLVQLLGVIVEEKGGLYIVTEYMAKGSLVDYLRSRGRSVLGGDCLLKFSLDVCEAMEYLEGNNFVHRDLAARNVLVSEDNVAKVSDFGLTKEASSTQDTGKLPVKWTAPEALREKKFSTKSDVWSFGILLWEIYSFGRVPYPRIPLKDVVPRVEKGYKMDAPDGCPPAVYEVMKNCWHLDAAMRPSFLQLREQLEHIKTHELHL

RIPK4 (human) = RIPK4 (human) (UniProt P57078); assay: KINOMEscan competition binding; settings: compound 1.0 µM
RIOK3 (human) = RIOK3 (human) (UniProt O14730); assay: KINOMEscan competition binding; settings: compound 1.0 µM
MAP3K9 (human) = MAP3K9 (human) (UniProt P80192); assay: KINOMEscan competition binding; settings: compound 1.0 µM
RPS6KA5 KD2 (human) = RPS6KA5 KD2 (human) (UniProt O75582); assay: KINOMEscan competition binding; settings: compound 1.0 µM
EIF2AK2 (human) = EIF2AK2 (human) (UniProt P19525); assay: KINOMEscan competition binding; settings: compound 1.0 µM
STK24 (human) = STK24 (human) (UniProt Q9Y6E0); assay: KINOMEscan competition binding; settings: compound 1.0 µM
CRK2 (P.falciparum) = CRK2 (P.falciparum) (UniProt P61075); assay: KINOMEscan competition binding; settings: compound 1.0 µM
Sequence of CRK2 (P.falciparum) (P61075 whole entry, looked up): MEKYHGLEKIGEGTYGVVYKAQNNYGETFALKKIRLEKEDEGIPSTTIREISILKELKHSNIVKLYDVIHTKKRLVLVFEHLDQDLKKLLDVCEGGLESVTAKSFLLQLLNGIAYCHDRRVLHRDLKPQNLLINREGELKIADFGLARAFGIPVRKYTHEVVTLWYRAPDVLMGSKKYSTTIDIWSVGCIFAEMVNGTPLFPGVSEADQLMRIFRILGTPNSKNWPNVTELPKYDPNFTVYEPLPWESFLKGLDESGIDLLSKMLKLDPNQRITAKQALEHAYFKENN

PRKX (human) = PRKX (human) (UniProt P51817); assay: KINOMEscan competition binding; settings: compound 1.0 µM
Sequence of PRKX (human) (P51817 whole entry, looked up): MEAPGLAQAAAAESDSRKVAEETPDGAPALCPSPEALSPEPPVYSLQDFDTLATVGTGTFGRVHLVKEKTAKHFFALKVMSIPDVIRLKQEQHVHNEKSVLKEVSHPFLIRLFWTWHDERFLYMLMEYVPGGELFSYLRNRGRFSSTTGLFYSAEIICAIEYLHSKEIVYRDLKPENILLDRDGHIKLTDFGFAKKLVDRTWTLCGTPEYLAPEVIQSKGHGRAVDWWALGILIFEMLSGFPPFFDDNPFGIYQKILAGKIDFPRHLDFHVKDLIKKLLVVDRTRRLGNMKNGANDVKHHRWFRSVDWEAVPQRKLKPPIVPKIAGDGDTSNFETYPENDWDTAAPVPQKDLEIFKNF

MAP3K5 (human) = MAP3K5 (human) (UniProt Q99683); assay: radiometric filter-binding kinase assay; settings: compound 10.0 µM
BTK (human) = BTK (human) (UniProt Q06187); assay: radiometric filter-binding kinase assay
Sequence of BTK (human) (Q06187 whole entry, looked up): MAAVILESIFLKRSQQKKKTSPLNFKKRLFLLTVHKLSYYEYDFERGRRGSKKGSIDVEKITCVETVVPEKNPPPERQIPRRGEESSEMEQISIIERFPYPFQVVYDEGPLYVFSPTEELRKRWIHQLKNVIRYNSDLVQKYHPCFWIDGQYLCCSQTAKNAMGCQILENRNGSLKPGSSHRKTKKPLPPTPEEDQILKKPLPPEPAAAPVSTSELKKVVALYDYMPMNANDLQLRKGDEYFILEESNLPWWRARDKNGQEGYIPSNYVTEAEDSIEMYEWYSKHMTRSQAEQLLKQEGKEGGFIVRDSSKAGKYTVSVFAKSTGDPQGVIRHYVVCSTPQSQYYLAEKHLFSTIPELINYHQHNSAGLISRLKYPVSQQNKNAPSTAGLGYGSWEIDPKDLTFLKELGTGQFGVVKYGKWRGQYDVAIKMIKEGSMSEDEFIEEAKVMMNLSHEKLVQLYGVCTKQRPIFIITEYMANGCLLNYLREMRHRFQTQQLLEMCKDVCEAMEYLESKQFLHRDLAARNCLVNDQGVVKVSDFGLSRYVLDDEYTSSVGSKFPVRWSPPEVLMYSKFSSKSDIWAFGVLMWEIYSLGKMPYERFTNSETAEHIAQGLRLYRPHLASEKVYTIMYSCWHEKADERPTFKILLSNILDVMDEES

HIPK2 (human) = HIPK2 (human) (UniProt Q9H2X6); assay: radiometric filter-binding kinase assay
Sequence of HIPK2 (human) (Q9H2X6 whole entry, looked up): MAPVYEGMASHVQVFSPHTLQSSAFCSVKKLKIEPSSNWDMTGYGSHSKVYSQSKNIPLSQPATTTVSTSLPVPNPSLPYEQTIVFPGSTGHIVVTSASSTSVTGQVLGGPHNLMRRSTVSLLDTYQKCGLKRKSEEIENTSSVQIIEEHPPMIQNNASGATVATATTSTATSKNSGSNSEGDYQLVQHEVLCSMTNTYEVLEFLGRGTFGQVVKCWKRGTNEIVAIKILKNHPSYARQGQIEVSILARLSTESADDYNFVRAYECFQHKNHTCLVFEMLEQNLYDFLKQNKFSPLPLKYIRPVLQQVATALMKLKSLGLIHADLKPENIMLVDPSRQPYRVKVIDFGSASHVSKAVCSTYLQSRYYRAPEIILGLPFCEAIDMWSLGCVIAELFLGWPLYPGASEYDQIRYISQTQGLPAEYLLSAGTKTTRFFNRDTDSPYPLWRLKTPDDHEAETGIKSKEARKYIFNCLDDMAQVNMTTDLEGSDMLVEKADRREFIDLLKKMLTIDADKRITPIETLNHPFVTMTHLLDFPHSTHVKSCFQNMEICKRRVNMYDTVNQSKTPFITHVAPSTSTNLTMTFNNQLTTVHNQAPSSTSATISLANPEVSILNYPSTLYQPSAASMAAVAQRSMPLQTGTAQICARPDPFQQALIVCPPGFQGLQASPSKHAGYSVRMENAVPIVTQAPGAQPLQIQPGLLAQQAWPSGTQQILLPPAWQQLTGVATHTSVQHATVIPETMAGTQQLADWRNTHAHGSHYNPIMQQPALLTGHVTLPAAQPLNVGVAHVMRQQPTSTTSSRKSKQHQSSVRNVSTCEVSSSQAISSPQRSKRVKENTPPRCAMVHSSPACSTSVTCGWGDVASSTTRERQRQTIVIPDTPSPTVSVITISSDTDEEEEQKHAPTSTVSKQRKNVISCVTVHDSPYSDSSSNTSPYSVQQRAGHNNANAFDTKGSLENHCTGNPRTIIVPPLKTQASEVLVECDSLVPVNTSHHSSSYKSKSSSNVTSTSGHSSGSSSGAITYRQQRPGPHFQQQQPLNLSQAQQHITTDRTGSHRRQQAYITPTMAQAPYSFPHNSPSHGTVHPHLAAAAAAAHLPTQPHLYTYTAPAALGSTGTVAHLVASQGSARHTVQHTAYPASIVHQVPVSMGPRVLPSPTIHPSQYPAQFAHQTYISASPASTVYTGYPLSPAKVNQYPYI

RPS6KA3 KD1 KD2 (human) = RPS6KA3 KD1 KD2 (human) (UniProt P51812); assay: radiometric filter-binding kinase assay
Sequence of RPS6KA3 KD1 KD2 (human) (P51812 whole entry, looked up): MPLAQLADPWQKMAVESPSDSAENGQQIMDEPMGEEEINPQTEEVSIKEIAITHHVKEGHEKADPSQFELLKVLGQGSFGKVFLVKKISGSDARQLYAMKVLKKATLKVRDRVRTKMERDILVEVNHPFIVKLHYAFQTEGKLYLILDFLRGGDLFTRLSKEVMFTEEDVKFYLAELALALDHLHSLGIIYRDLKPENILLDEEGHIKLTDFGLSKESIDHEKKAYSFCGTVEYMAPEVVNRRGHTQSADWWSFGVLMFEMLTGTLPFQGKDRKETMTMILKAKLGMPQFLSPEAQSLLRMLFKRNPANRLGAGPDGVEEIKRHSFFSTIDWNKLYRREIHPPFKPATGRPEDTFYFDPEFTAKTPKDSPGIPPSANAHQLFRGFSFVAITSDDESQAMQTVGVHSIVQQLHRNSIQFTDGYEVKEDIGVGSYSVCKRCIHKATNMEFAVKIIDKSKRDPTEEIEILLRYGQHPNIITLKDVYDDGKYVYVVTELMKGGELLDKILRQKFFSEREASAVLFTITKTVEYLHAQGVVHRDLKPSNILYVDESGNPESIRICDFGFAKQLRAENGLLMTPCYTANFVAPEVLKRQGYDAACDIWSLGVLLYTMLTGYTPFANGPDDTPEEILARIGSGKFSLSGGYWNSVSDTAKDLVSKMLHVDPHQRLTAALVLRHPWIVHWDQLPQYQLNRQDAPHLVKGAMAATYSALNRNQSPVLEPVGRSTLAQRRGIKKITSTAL

CHEK2 (human) = CHEK2 (human) (UniProt O96017); assay: radiometric filter-binding kinase assay
Sequence of CHEK2 (human) (O96017 whole entry, looked up): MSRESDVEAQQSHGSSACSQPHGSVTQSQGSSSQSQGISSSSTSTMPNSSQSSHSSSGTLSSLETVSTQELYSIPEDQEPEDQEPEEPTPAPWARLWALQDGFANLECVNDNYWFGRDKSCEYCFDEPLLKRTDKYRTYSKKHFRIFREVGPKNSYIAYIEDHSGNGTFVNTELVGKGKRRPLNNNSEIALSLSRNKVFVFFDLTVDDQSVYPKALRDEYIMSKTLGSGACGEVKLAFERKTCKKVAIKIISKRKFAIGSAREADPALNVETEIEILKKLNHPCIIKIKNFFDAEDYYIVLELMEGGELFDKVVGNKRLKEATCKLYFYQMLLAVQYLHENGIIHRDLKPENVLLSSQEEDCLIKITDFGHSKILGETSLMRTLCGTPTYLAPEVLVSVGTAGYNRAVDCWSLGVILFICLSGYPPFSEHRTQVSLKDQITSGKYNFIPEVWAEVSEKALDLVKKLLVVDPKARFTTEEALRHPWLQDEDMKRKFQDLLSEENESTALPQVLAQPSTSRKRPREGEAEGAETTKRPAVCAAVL

RPS6KA5 KD1 KD2 (human) = RPS6KA5 KD1 KD2 (human) (UniProt O75582); assay: radiometric filter-binding kinase assay
Sequence of RPS6KA5 KD1 KD2 (human) (O75582 whole entry, looked up): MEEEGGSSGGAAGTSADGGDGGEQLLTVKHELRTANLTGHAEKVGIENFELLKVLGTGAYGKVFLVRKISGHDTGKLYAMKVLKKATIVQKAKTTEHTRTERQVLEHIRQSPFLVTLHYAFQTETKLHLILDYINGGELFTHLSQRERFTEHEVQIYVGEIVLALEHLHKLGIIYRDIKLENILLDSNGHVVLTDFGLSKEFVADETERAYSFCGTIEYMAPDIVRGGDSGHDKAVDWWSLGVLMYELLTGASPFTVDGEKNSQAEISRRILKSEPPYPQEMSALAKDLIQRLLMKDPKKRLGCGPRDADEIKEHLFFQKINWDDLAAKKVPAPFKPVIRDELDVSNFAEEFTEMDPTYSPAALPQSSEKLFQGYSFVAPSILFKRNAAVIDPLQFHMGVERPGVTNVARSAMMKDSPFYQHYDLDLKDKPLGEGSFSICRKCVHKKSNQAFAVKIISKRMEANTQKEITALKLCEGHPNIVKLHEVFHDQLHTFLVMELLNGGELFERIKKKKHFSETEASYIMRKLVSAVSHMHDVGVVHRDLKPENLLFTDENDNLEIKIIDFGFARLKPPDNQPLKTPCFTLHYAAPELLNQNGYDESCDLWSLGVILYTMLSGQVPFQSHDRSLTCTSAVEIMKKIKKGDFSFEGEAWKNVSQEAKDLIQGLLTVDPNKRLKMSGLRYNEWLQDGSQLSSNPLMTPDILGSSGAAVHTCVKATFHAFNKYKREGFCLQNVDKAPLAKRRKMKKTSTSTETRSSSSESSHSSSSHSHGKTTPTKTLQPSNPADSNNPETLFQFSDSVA

LCK (mouse) = assay: radiometric filter-binding kinase assay; settings: accession and sequence are those of the human protein

CNc1nc(Nc2ccc(C(=O)N3CCOCC3)cc2OC)ncc1Cl
kinase still bound, per cent of control (CSNK1G3 (human)): 100%
residual activity (PRKACB (human)): 84%
kinase still bound, per cent of control (ERN1 (human)): 88%
kinase still bound, per cent of control (MAK (human)): 100%
residual activity (CDC2L2 (human)): 100%
kinase still bound, per cent of control (MAP3K4 (human)): 100%
kinase still bound, per cent of control (RPS6KA1 KD1 (human)): 100%
kinase still bound, per cent of control (HUNK (human)): 98%
kinase still bound, per cent of control (STK35 (human)): 100%
kinase still bound, per cent of control (DDR2 (human)): 100%
kinase still bound, per cent of control (ROCK1 (human)): 100%
kinase still bound, per cent of control (PAK2 (human)): 95%
kinase still bound, per cent of control (ERBB3 (human)): 100%
kinase still bound, per cent of control (LYN (human)): 100%
kinase still bound, per cent of control (FGFR3 (human)): 100%
kinase still bound, per cent of control (CASK (human)): 97%
kinase still bound, per cent of control (SGK3 (human)): 100%
kinase still bound, per cent of control (BMP2K (human)): 79%
residual activity (CDK14 (human)): 100%
kinase still bound, per cent of control (PHKG2 (human)): 58%
kinase still bound, per cent of control (SYK (human)): 100%
kinase still bound, per cent of control (CSK (human)): 100%
kinase still bound, per cent of control (RIPK4 (human)): 100%
kinase still bound, per cent of control (RIOK3 (human)): 87%
kinase still bound, per cent of control (MAP3K9 (human)): 100%
kinase still bound, per cent of control (RPS6KA5 KD2 (human)): 54%
kinase still bound, per cent of control (EIF2AK2 (human)): 100%
kinase still bound, per cent of control (STK24 (human)): 79%
kinase still bound, per cent of control (CRK2 (P.falciparum)): 100%
kinase still bound, per cent of control (PRKX (human)): 99%
residual activity (MAP3K5 (human)): 54%
residual activity (BTK (human); compound 1.0 µM): 83%
residual activity (BTK (human); compound 10.0 µM): 88%
residual activity (HIPK2 (human); compound 1.0 µM): 77%
residual activity (HIPK2 (human); compound 10.0 µM): 88%
residual activity (RPS6KA3 KD1 KD2 (human); compound 1.0 µM): 92%
residual activity (RPS6KA3 KD1 KD2 (human); compound 10.0 µM): 65%
residual activity (CHEK2 (human); compound 1.0 µM): 52%
residual activity (CHEK2 (human); compound 10.0 µM): 96%
residual activity (RPS6KA5 KD1 KD2 (human); compound 1.0 µM): 104%
residual activity (RPS6KA5 KD1 KD2 (human); compound 10.0 µM): 84%
residual activity (LCK (mouse); compound 1.0 µM): 92%
residual activity (LCK (mouse); compound 10.0 µM): 95%
